Assay results: the NIST ThermoML archive (doi:10.1016/j.jct.2016.09.030)

Assay: refractive index (Na D-line) (dimensionless); xn = mol fraction of the nth substance listed
Details: 100 kPa, Liquid, Standard Abbe refractometry

CCOC(=O)CCC(=O)OCC [diethyl butanedioate] + CC(C)CCO
refractive index
Details | x1 = 0.1 | x1 = 0.2 | x1 = 0.3 | x1 = 0.3999 | x1 = 0.5 | x1 = 0.5999 | x1 = 0.7 | x1 = 0.7999 | x1 = 0.9002 | x1 = 1
288.15 K | 1.41 | 1.4114 | 1.4129 | 1.4144 | 1.4158 | 1.4172 | 1.4184 | 1.4197 | 1.4208 | 1.4217
293.15 K | 1.4079 | 1.4093 | 1.4108 | 1.4123 | 1.4136 | 1.415 | 1.4163 | 1.4175 | 1.4186 | 1.4195
298.15 K | 1.4058 | 1.4072 | 1.4087 | 1.4101 | 1.4115 | 1.4128 | 1.414 | 1.4153 | 1.4164 | 1.4173
303.15 K | 1.4037 | 1.4051 | 1.4065 | 1.4079 | 1.4093 | 1.4106 | 1.4119 | 1.4131 | 1.4142 | 1.4151
308.15 K | 1.4016 | 1.4029 | 1.4043 | 1.4057 | 1.4071 | 1.4084 | 1.4096 | 1.4108 | 1.412 | 1.4129
313.15 K | 1.3996 | 1.4008 | 1.4022 | 1.4036 | 1.4049 | 1.4062 | 1.4075 | 1.4087 | 1.4098 | 1.4108
318.15 K | 1.3975 | 1.3988 | 1.4001 | 1.4014 | 1.4028 | 1.4041 | 1.4054 | 1.4066 | 1.4077 | 1.4088
323.15 K | 1.3954 | 1.3966 | 1.398 | 1.3993 | 1.4006 | 1.4019 | 1.4032 | 1.4045 | 1.4056 | 1.4067

CCOC(=O)CCC(=O)OCC [diethyl butanedioate] + CC(C)CO
refractive index
Details | x1 = 0.0999 | x1 = 0.2 | x1 = 0.3001 | x1 = 0.4 | x1 = 0.4999 | x1 = 0.5999 | x1 = 0.6999 | x1 = 0.8 | x1 = 0.9 | x1 = 1
288.15 K | 1.4016 | 1.4047 | 1.4076 | 1.4103 | 1.4127 | 1.4148 | 1.4168 | 1.4186 | 1.4203 | 1.4217
293.15 K | 1.3995 | 1.4025 | 1.4055 | 1.4081 | 1.4105 | 1.4127 | 1.4146 | 1.4164 | 1.4181 | 1.4195
298.15 K | 1.3974 | 1.4004 | 1.4033 | 1.4059 | 1.4083 | 1.4104 | 1.4124 | 1.4142 | 1.4159 | 1.4173
303.15 K | 1.3952 | 1.3982 | 1.4011 | 1.4037 | 1.4061 | 1.4082 | 1.4102 | 1.412 | 1.4137 | 1.4151
308.15 K | 1.3929 | 1.396 | 1.3989 | 1.4015 | 1.4038 | 1.406 | 1.408 | 1.4098 | 1.4115 | 1.4129
313.15 K | 1.3908 | 1.3938 | 1.3966 | 1.3992 | 1.4016 | 1.4037 | 1.4058 | 1.4076 | 1.4093 | 1.4108
318.15 K | 1.3886 | 1.3916 | 1.3943 | 1.397 | 1.3993 | 1.4015 | 1.4036 | 1.4054 | 1.4071 | 1.4088
323.15 K | 1.3863 | 1.3894 | 1.3921 | 1.3947 | 1.3971 | 1.3993 | 1.4013 | 1.4032 | 1.405 | 1.4067

CCCCCCCC(=O)OCC [ethyl octanoate] + CC(C)CCO
refractive index
Details | x1 = 0.1 | x1 = 0.2001 | x1 = 0.3 | x1 = 0.4 | x1 = 0.5001 | x1 = 0.5999 | x1 = 0.7003 | x1 = 0.7998 | x1 = 0.9001 | x1 = 1
288.15 K | 1.4104 | 1.412 | 1.4134 | 1.4146 | 1.4156 | 1.4166 | 1.4175 | 1.4183 | 1.4191 | 1.4199
293.15 K | 1.4083 | 1.4099 | 1.4112 | 1.4124 | 1.4135 | 1.4144 | 1.4153 | 1.4161 | 1.4169 | 1.4177
298.15 K | 1.4063 | 1.4078 | 1.4091 | 1.4102 | 1.4113 | 1.4122 | 1.4131 | 1.4139 | 1.4147 | 1.4155
303.15 K | 1.4042 | 1.4056 | 1.4069 | 1.4081 | 1.4091 | 1.41 | 1.4109 | 1.4116 | 1.4125 | 1.4132
308.15 K | 1.4021 | 1.4035 | 1.4047 | 1.4059 | 1.4069 | 1.4078 | 1.4087 | 1.4094 | 1.4102 | 1.411
313.15 K | 1.3999 | 1.4013 | 1.4026 | 1.4037 | 1.4047 | 1.4056 | 1.4064 | 1.4072 | 1.408 | 1.4088
318.15 K | 1.3978 | 1.3992 | 1.4004 | 1.4015 | 1.4024 | 1.4034 | 1.4042 | 1.405 | 1.4058 | 1.4066
323.15 K | 1.3957 | 1.397 | 1.3982 | 1.3993 | 1.4003 | 1.4012 | 1.402 | 1.4027 | 1.4036 | 1.4044

CCCCCCCC(=O)OCC [ethyl octanoate] + CC(C)CO
refractive index
Details | x1 = 0.1001 | x1 = 0.1999 | x1 = 0.3 | x1 = 0.4 | x1 = 0.5 | x1 = 0.5999 | x1 = 0.6999 | x1 = 0.7999 | x1 = 0.9 | x1 = 1
288.15 K | 1.4018 | 1.4052 | 1.408 | 1.4102 | 1.4123 | 1.4142 | 1.4158 | 1.4173 | 1.4186 | 1.4199
293.15 K | 1.3997 | 1.403 | 1.4058 | 1.408 | 1.4101 | 1.412 | 1.4136 | 1.4151 | 1.4164 | 1.4177
298.15 K | 1.3976 | 1.4009 | 1.4036 | 1.4058 | 1.4079 | 1.4097 | 1.4114 | 1.4128 | 1.4142 | 1.4155
303.15 K | 1.3955 | 1.3987 | 1.4014 | 1.4036 | 1.4056 | 1.4075 | 1.4091 | 1.4106 | 1.4119 | 1.4132
308.15 K | 1.3933 | 1.3965 | 1.3992 | 1.4014 | 1.4034 | 1.4052 | 1.4069 | 1.4084 | 1.4097 | 1.411
313.15 K | 1.3911 | 1.3942 | 1.3969 | 1.3991 | 1.4012 | 1.403 | 1.4046 | 1.4061 | 1.4075 | 1.4088
318.15 K | 1.3889 | 1.392 | 1.3947 | 1.3968 | 1.3989 | 1.4007 | 1.4024 | 1.4039 | 1.4052 | 1.4066
323.15 K | 1.3867 | 1.3898 | 1.3925 | 1.3946 | 1.3967 | 1.3985 | 1.4001 | 1.4017 | 1.403 | 1.4044
